In patent US20240299401A1, “NOVEL REDOX-BASED THERAPEUTIC APPROACH FOR TREATMENT OF CANCER” (THE PENN STATE RESEARCH FOUNDATION, priority 2020, published 2024):
Counter-ions that a name gives are not always drawn. Like-named read-outs stand apart in the source and are kept apart here.

Experiments:
[1] = system: extracellular reduced thiols; test: Extracellular thiols measurement (DTDP method); assay type: cell-based, human; conditions: for thiols efflux: A549 and H1299, 24 h, Erastin 5 μM, MSG 50 mM, Sorafenib 2.5 μM, trans-2,4-PDC 100 μM; for extracellular reduced thiols levels: MCF7 cells
Method: Cell culture media was collected at specified time points after incubation with the respective compounds as described in the respective figure legends and extracellular total thiols were measured using the DTDP method 19. The protocol was adjusted to 96-well plate format. […] Absorbance was measured at 324 nm in a spectrophotometer (PowerWave HT, BioTek, VT, USA). The assay mixture with fresh media was used as a blank.

NB4 = test: WST-1 cytotoxicity, NB4; assay type: cell-based, human; conditions: NB4 (Leukemia), compound alone, 24 h, '>' = dose approximation, read-out: IC50 values
Method: (§1) Two different cytotoxicity/proliferation kit was used in this study i.e., WST-1 proliferation assay kit (Roche, Indianapolis, IN, USA; Cat #28620000) and Cell-titer Glo-luminescent cell viability assay (Promega, WI, USA; Cat #0000348721). Majority of the cell proliferation/cytotoxicity experiments were performed with WST-1 assay. Briefly, cells were seeded at the indicated density for 24 h in 96 well plate, media was replaced, and subsequently treated with the test compounds at different doses. […] Cell titer Glo-assay was additionally performed in certain cases to validate the results from WST-1 assay as outlined above following manufacturer's instructions and luminescence was measured using a FLx100 Luminometer (CLARIOSTAR®, Ortenbery, Germany). […] Other proliferation/cytotoxicity assays were also carried out i.e., Quant™-iT PicoGreen ds DNA assay kit (Thermo Scientific, Rockwood, TN, USA, P7589) following manufacturer's instructions, Trypan blue (Sigma, Ayrshire, UK, T8154) and acid phosphatase assay for validation of cytotoxicity/proliferation data from other assays.

HL60 = test: WST-1 cytotoxicity and synergy analysis, HL60; assay type: cell-based, human; conditions: HL60 (Leukemia), compound alone, 24 h, '>' = dose approximation, read-out: IC50 values
Method: as §1

A549 = test: WST-1 cytotoxicity, A549; assay type: cell-based, human; conditions: A549 (Lung), compound alone, 24 h, '>' = dose approximation, read-out: IC50 values
Method: as §1

H661 = test: WST-1 cytotoxicity, H661; assay type: cell-based, human; conditions: H661 (Lung), compound alone, 24 h, '>' = dose approximation, read-out: IC50 values
Method: as §1

[2] = system: 23 different human cell lines of multiple cancer origins; test: Cytotoxicity across the cancer cell line panel (summary statements); assay type: cell-based
Method: as §1

ATF4 = conditions: HEK293 ATF4 reporter; tunicamycin 2.5 μM, other compounds 5.0 μM; 24 h
Method: The next day, media was replaced with respective compounds as described. Twenty-four hours post-treatment, media were aspirated and replaced with 1:1 ratio of PBS:Bright Glo luciferase reagent mix (Promega, Madison, WI, USA) according to manufacturer's protocol. Cells were incubated in the dark for 10 min at room temperature with gentle rocking and luciferase activity was measured using an FLx100 Luminometer (CLARIOSTAR®, Ortenbery, Germany). In parallel, the same setup was made, and the cells were used to monitor the proliferation/toxicity of individual exposed compounds. Luciferase signal is normalized to the to the proliferation/toxicity of the individual compounds. Bortezomib (50 nM, Sigma-Aldrich, St. Louis, MO, USA), a known agonist for ATF4, was used as a positive control.
The next day, old media was replaced with media containing the respective compounds as described in the figure legends. […] Cells were incubated in the dark for 10 min at room temperature with gentle rocking and luciferase activity was measured using an FLx100 Luminometer (CLARIOSTAR®, Ortenbery, Germany). […] In parallel, the same setup was made, and the cells were used to monitor the proliferation/toxicity of individual compounds. Luciferase signal was normalized to correct for the proliferation/toxicity of the individual compounds. […] For ATF4 reporter assay, Hek293T reporter cells 20 were cultured similarly as indicated for MCF7 cells, except for seeding density was set at 300 cells/mm2. All other experimental set up was similar.

SLC7A11 = SLC7A11 mRNA expression (qRT-PCR); conditions: HL60 and H1299 cells
MCF-7 = test: WST-1 cytotoxicity, MCF-7; assay type: cell-based, human; conditions: MCF7 (Breast); compound alone; 24 h; '>' = dose approximation; read-out: IC50 values
Method: as §1

H1299 = test: WST-1 cytotoxicity, H1299; assay type: cell-based, human; conditions: H1299 (Lung); compound alone; 24 h; '>' = dose approximation; read-out: IC50 values
Method: as §1

O=C(O)[C@H]1CN[C@H](C(=O)O)C1 (relative stereo) [trans-2,4-PDC]
thiols efflux [1]: no effect

CCCCS(=N)(=O)CCC(N)C(=O)O (stereo not shown) [BSO]
impact on the DPDS-induced increase in thiols efflux ([1]; MCF7, co-exposure, time-course): little or no impact

COc1cc(/C=C/C(=O)CC(=O)/C=C/c2ccc(O)c(OC)c2)ccc1O [Curcumin, reference compound]
IC50 (NB4; Homo sapiens, NB-4): > 20 µM
IC50 (HL60; Homo sapiens, HL-60): > 20 µM
IC50 (A549; Homo sapiens): > 20 µM
IC50 (H661; Homo sapiens, NCI-H661): > 20 µM

c1ccc(C[Se][Se]Cc2ccccc2)cc1 [DBDS, dibenzyl diselenide]
extracellular reduced thiols ([1]; HEK293 ATF4 reporter cells, 5.0 μM): increased levels of extracellular reduced thiols
extracellular reduced thiols ([1]; all the tested cell lines, H1299 and HL60): highly effective

COC(=O)/C=C/C(=O)OC [Dimethyl fumarate, reference compound]
IC50 (NB4; Homo sapiens, NB-4): > 40 µM
IC50 (HL60; Homo sapiens, HL-60): > 40 µM
IC50 (A549; Homo sapiens): > 40 µM
IC50 (H661; Homo sapiens, NCI-H661): > 40 µM

CCOc1ccccc1-n1c(C(C)N2CCN(C(=O)COc3ccc(Cl)cc3)CC2)nc2ccccc2c1=O (stereo not shown) [Erastin]
effect of co-treatment on cytotoxicity of sodium selenite and selenocystine [2]: inhibition of cytotoxicity

c1ccc(SSc2ccccc2)cc1 [Phenyl disulfide]
IC50 (NB4; Homo sapiens, NB-4): > 20 µM
IC50 (HL60; Homo sapiens, HL-60): > 40 µM
IC50 (A549; Homo sapiens): > 40 µM
IC50 (H661; Homo sapiens, NCI-H661): > 20 µM

O=C(O)c1cc(/N=N/c2ccc(S(=O)(=O)Nc3ccccn3)cc2)ccc1O [Sulfasalazine]
effect of co-treatment on cytotoxicity of sodium selenite and selenocystine ([2]; chemical inhibition of cystine transport): inhibition of cytotoxicity

C[S+]([O-])CCCCN=C=S (stereo not shown) [Sulforaphen, reference compound]
IC50 (NB4; Homo sapiens, NB-4): > 20 µM
ATF4 activity (ATF4): not effective
extracellular reduced thiols levels [1]: induced
IC50 (HL60; Homo sapiens, HL-60): > 20 µM
IC50 (A549; Homo sapiens): > 10 µM
IC50 (H661; Homo sapiens, NCI-H661): > 10 µM

CC(C)(C)c1cc(O)ccc1O [Tert-butyl hydroxyquinone, reference compound]
SLC7A11 expression (SLC7A11): Increased SLC7A11 expression
IC50 (NB4): > 20 µM
IC50 (MCF-7): > 60 µM
ATF4 activity (ATF4): not effective
IC50 (H1299): > 100 µM
extracellular reduced thiols levels [1]: induced
IC50 (HL60): > 25 µM
IC50 (A549): > 20 µM
IC50 (H661): > 40 µM

c1ccc([Te][Te]c2ccccc2)cc1 [diphenyl ditelluride]
ATF4 activity (ATF4): Increased ATF4 activity

N[C@@H](CCC(=O)O)C(=O)[O-].[Na+] [mono-sodium glutamate]
thiols efflux [1]: inhibited thiols efflux

CNC(=O)c1cc(Oc2ccc(NC(=O)Nc3ccc(Cl)c(C(F)(F)F)c3)cc2)ccn1 [sorafenib]
thiols efflux [1]: no effect

Tunicamycin [reference compound]
SLC7A11 expression (SLC7A11): Increased SLC7A11 expression
IC50 (MCF-7): > 5 µM
ATF4 activity (ATF4): Increased ATF4 activity
IC50 (H1299): > 20 µM
